Where two headings read alike, the source gives them in different places.
How the values were obtained:
[1] = system: cardiac myocytes; assay: Calcium current blockade in cardiac myocytes (voltage clamp); format: cell-based, guinea-pig; conditions: voltage clamp experiments of cardiac myocytes
Procedure: Ventricular myocytes were isolated from guinea-pig hearts by enzymatic dispersion of the cells using a method related to that employed by Mitra and Morad. After 5 minutes of perfusion at 37 °C on a Langendorff apparatus, the Tyrode solution was changed for a Ca-free solution for 5 minutes, after which the heart was perfused with a 40ml Ca-free solution containing 12mg collagenase (Type II, Sigma) and 10mg protease (Type XIV; Sigma). Perfusion with the soluticn containing enzymes was usually stopped within 5 minutes or as soon as dark areas appeared on the ventricles. The heart was then perfused with a Tyrode solution containing 0.8mM Ca for a few minutes, after which the ventricles were cut in small pieces and the isolated cells were shaken free in a 50ml beaker containing Tyrode solution.
Tyrode solution containing 5.4 mM KCI; 1.8 mM CaC12; 0.5 mM MgClz; 137.6 mM NaCI; 5 mM glucose and 11.6 mM HEPES. The pH was adjusted to 7.4 with NaOH. […] No change in the pH of the Tyrode solution could be measured after this addition. […]
Suction pipettes with resistance values between 2 and 5 MΩ were drawn from borosilicate glass (Jencons, H15/10) and heat polished. […] The results were recorded on magnetic tape or floppy disk. […] Calcium currents were measured as the difference between the maximum slow inward current and the current recorded after 400 ms.

[2] = system: isolated rabbit ear preparation; assay: Rabbit ear perfusion test (adrenaline-induced tone, perfusion pressure)
Procedure: Female New Zealand White rabbits (approximately 4kg) were anaesthetised with Sagatal ® (0.5ml/kg).
The central ear artery was cannulated using a 20 G catheter and the ear cut off at its base. Heparinised (5ml, 200 IU;ml) Krebs bicarbonate solution was perfused through the ear to expel the blood. The ear was placed in a warming jacket at 37°C and attached via the arterial catheter to the perfusion pump. Perfusion of the ear with aerated (95% 025% C02)Krebs bicarbonate solution at 37° C was commenced at a rate of 6.5ml/min using a Watson Marlow peristaltic pump. The perfusion pressure was monitored continuously using a pressure transducer (Type 4-327-1221, Consoliated Electrodynamics) coupled to a Devices Recorder.
Following an equilibration period of 15 minutes, increased tone was induced in the preparation by addition of adrenaline (1µg/ml) to the perfusion fluid.
After a stable tone was observed, various concentrations of test compounds were injected into the perfusion fluid and examined for their effect on the perfusion pressure. The effect of vehicle (0.2ml, 50% Krebs 50% ethanol) was also tested on the ear preparation.

[3] = system: spontaneously hypertensive rats (SHR ); assay: Antihypertensive test: mean arterial pressure in spontaneously hypertensive rats; format: in vivo, rat; conditions: statement in words
Procedure: The effect of Compound 3 on the mean arterial pressure was determined on spontaneously hypertensive rats (SHR ) by means of direct pressure transducing. Groups of 6 male rats of mass 210-300g were used. The average of ten pressure determinations was used. Normotensive (BD-9) rats were used as animal controls, while normal saline solution (containing some traces of polyethylene glycol and ethanol to aid in the solution of the test compounds) was used as solvent and as solvent control.
After verifying the mass of the animal, it was placed under general anaesthesia by administering 60mgikg pentobarbitone (Sagatal@) intraperitonially. The tracheal tube and carotid artery were both exposed by dissection. An intranule was introduced into the trachea as aid ventilation. The carolid artery was canalated and coupled to a pressure sensor. The sysolic, diastolic and mean arterial pressure were monitored via a Spacelab 514 patient monitor and registered on a Vitatek 551 plotter. During the experiment the exposed tissue of the rat was covered with guaze and kept damp with normal saline.
The drugs and solvent controls were administered intravenously into the dorsal penile vein after stabilization of the blood pressure (BP) had occurred. After drug administration, the BP was recorded every 5 minutes for a period of 30 min.

[4] = system: guinea-pig papillary muscle; assay: Electrophysiological test: action potential of guinea-pig papillary muscle (microelectrode technique); conditions: for minimal effective concentration: Cavia porcellus; for TIME 1 (Shortest time needed to attain suppression) / TIME 2 (Shortest time needed for reversal of effect by washing out of compound): at the listed bath concentration; for DEGREE OF SUPPRESSION: suppression of action potential at the listed bath concentration
Procedure: Electrophysiological studies were conducted on guinea-pig papillary muscle.
Using a microelectrode technique, action potentials were measured from guinea-pig papillary muscles. Action potentials were evoked by electrical stimulation (platinum electrode, Grass S88 stimulator, 1 Hz stimulation frequency; voltage, 10% above threshold). […] The preparations were electrically driven (pacing intervals 1 s, duration 2-5 ms). Slow (Ca2+ mediated) action potentials were evoked in a depolarizing solution (22 mmol/l K and 5 mmol/I Ca^2+) at 0,35 Hz stimulation frequency in order to ensure complete removal of inactivation of slow inward current.

CCCCCCCCNC12OC3C4C5CC(C6C5C3C61)C42 (racemic) [Compound 3, 8-η-Octylamino-8,11-oxopentacyclo[5.4.0 .0^2,6.0^3,10.0^5,9]undecane]
block of the calcium current [1]: pronounced frequency dependent block | inhibition at 0.01 mg ([2]; Oryctolagus cuniculus, Table 5, dose 10 µg, read-out: Mean % change in perfusion pressure): 8.5% | inhibition at 0.0316 mg ([2]; Oryctolagus cuniculus, Table 5, dose 31.6 µg, read-out: Mean % change in perfusion pressure): 11.5% | inhibition at 0.1 mg ([2]; Oryctolagus cuniculus, Table 5, dose 100 µg, read-out: Mean % change in perfusion pressure): 16.5% | inhibition at 0.316 mg ([2]; Oryctolagus cuniculus, Table 5, dose 316 µg, read-out: Mean % change in perfusion pressure): 26% | inhibition at 1 mg ([2]; Oryctolagus cuniculus, Table 5, dose 1000 µg, read-out: Mean % change in perfusion pressure): 41% | inhibition at 0.01 mg ([2]; Oryctolagus cuniculus, Table 6, dose 10 μg, read-out: Corrected mean % change in perfusion pressurre): 5.5% | inhibition at 0.0316 mg ([2]; Oryctolagus cuniculus, Table 6, dose 31.6 μg, read-out: Corrected mean % change in perfusion pressurre): 5.5% | inhibition at 0.1 mg ([2]; Oryctolagus cuniculus, Table 6, dose 100 μg, read-out: Corrected mean % change in perfusion pressurre): 11.5% | inhibition at 0.316 mg ([2]; Oryctolagus cuniculus, Table 6, dose 316 μg, read-out: Corrected mean % change in perfusion pressurre): 20.5% | inhibition at 1 mg ([2]; Oryctolagus cuniculus, Table 6, dose 1000 μg, read-out: Corrected mean % change in perfusion pressurre): 34.5% | inhibition at 0.0316 mg ([2]; Oryctolagus cuniculus, Table 7, dose 31.6 μg, read-out: Mean % change in perfusion pressure): 9.4% | inhibition at 0.1 mg ([2]; Oryctolagus cuniculus, Table 7, dose 100 μg, read-out: Mean % change in perfusion pressure): 17.3% | inhibition at 0.316 mg ([2]; Oryctolagus cuniculus, Table 7, dose 316 μg, read-out: Mean % change in perfusion pressure): 24.7% | inhibition at 1 mg ([2]; Oryctolagus cuniculus, Table 7, dose 1000 μg, read-out: Mean % change in perfusion pressure): 28.9% | inhibition at 3.16 mg ([2]; Oryctolagus cuniculus, Table 7, dose 3160 μg, read-out: Mean % change in perfusion pressure): 27.6% | Mean time taken to return to pre-dose volume ([2]; Table 5, dose 31.6 µg): 1.75 min | Mean time taken to return to pre-dose volume ([2]; Table 5, dose 100 µg): 4.25 min | Mean time taken to return to pre-dose volume ([2]; Table 5, dose 316 µg): 5.5 min | Mean time taken to return to pre-dose volume ([2]; Table 5, dose 1000 µg): 8.75 min | Mean time to return to predose value ([2]; Table 6, dose 100 μg): 4.25 min | Mean time to return to predose value ([2]; Table 6, dose 316 μg): 7.0 min | Mean time to return to predose value ([2]; Table 6, dose 1000 μg): 10.5 min | Mean time taken to return to predose volume ([2]; Table 7, dose 31.6 μg): 6.3 min | Mean time taken to return to predose volume ([2]; Table 7, dose 100 μg): 6.3 min | Mean time taken to return to predose volume ([2]; Table 7, dose 316 μg): 8.5 min | Mean time taken to return to predose volume ([2]; Table 7, dose 1000 μg): 19.3 min | Mean time taken to return to predose volume ([2]; Table 7, dose 3160 μg): 15.0 min | Antihypertensive activity [3]: Antihypertensive activity has also been obtained | minimal effective concentration ([4]; read-out: BATH CONCENTRATION (Lowest concentration of the compound to induce suppression of action potential), Table 3, guinea-pig papillary muscle): 62.5 µM | minimal effective concentration ([4]; read-out: BATH CONCENTRATION (Lowest concentration of the compound to induce suppression of action potential), Table 4, racemates and optical isomers): 62.5 µM | TIME 1 (Shortest time needed to attain suppression) ([4]; Table 3): 6 min | TIME 2 (Shortest time needed for reversal of effect by washing out of compound) ([4]; Table 3): 6 min | DEGREE OF SUPPRESSION ([4]; Table 3): complete | TIME 1 (Shortest time needed to attain suppression) ([4]; Table 4): 6 min | TIME 2 (Shortest time needed for reversal of effect by washing out of compound) ([4]; Table 4): 6 min | DEGREE OF SUPPRESSION ([4]; Table 4): complete
